Experimental data reported in patent publication US20230339851A1, “CXCR6 SULFONAMIDE COMPOUNDS” (CHEMOCENTRYX, INC., priority 2022, published 2023).

target: T1, human CXCR6 (Homo sapiens, UniProt O00574); assay: Radioligand Binding Assay (125I-CXCL16 displacement); settings: L1.2 cells stably transfected with human CXCR6 cDNA, 0.1 nM 125I-CXCL16, 4° C., three-hour incubation; read-out: Potency (IC50)
T1 construct: expressed in transfected cells
How it was run: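 L1.2 cells stably expressing human CXCR6 incubated 3 h at 4 °C in HBSS/0.1% BSA with 0.1 nM 125I-CXCL16 and graded compound concentrations. Bound radioactivity collected by filtration and counted; IC50 from 3-parameter nonlinear regression.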

T1 sequence (O00574 whole entry): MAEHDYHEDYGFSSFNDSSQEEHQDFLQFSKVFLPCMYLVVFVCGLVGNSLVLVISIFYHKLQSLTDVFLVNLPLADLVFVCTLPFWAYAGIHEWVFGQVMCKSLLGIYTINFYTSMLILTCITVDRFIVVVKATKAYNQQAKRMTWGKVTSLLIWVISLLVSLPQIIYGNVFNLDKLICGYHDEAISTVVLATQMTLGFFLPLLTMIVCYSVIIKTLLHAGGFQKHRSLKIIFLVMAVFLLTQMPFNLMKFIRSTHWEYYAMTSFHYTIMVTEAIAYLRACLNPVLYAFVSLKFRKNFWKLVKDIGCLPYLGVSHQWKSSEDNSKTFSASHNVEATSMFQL

Row | SMILES | IC50 [nM]
1 | COCC(=O)Nc1ccc(S(=O)(=O)Nc2cccc(C(F)(F)F)c2)c(C)c1 [Example 1.544] | 2000 to 20000
2 | CCCCOc1cc(NC(=O)c2ccns2)ccc1S(=O)(=O)Nc1cccc(C(F)(F)F)c1 [Example 1.124] | 2000 to 20000
3 | CCOc1cc(NC(C)=O)ccc1S(=O)(=O)Nc1cccc(C(F)(F)F)c1 [Example 1.212] | 2000 to 20000
4 | COc1cc(NC(=O)[C@@H]2CCC[C@H]2NC(=O)OC(C)(C)C)ccc1S(=O)(=O)Nc1cccc(C(F)(F)F)c1 [Example 1.426] | 2000 to 20000
5 | COc1cc(NC(=O)[C@H]2CC[C@H](OC)CC2)ccc1S(=O)(=O)Nc1cccc(C(F)(F)F)c1 [Example 1.051] | 2000 to 20000
6 | COc1cc(NC(=O)CC(C)(C)O)ccc1S(=O)(=O)Nc1cccc(C(F)(F)F)c1 [Example 1.122] | 2000 to 20000
7 | CCOc1cc(NC(=O)[C@@H](CO)C(C)C)ccc1S(=O)(=O)Nc1cccc(Cl)c1OC [Example 1.362] | 750 to 2000
8 | CCOc1cc(NC(=O)c2ccc(N(C)C)cc2)ccc1S(=O)(=O)Nc1cccc(OC(F)(F)F)c1 [Example 1.315] | 750 to 2000
9 | CCOc1cc(NC(=O)c2cccn(C)c2=O)ccc1S(=O)(=O)Nc1cccc(OC(F)(F)F)c1 [Example 1.260] | 2000 to 20000
10 | CCOc1cc(NC(=O)[C@@H](CO)C(C)C)ccc1S(=O)(=O)Nc1cccc(OC(F)(F)F)c1C [Example 1.101] | 2000 to 20000
11 | CCOc1cc(NC(=O)C2CCC(O)C2)ccc1S(=O)(=O)Nc1cccc(OC(F)(F)F)c1 (centres unmarked) [Example 1.373] | 750 to 2000
12 | Cc1cc(NC(=O)N2CCOCC2)ccc1S(=O)(=O)Nc1cccc(C(F)(F)F)c1 [Example 1.148] | 2000 to 20000
13 | CCOc1cc(NC(=O)[C@@H](CO)C(C)C)ccc1S(=O)(=O)Nc1cccc(Cl)c1C [Example 1.540] | 200 to 750
14 | COc1cc(NC(=O)C2NC3CCC2C3)ccc1S(=O)(=O)Nc1cccc(C(F)(F)F)c1 (centres unmarked) [Example 1.472] | 2000 to 20000
15 | CCOc1cc(NC(=O)[C@@H](CO)c2ccccc2)ccc1S(=O)(=O)Nc1cccc(Cl)c1C [Example 1.221] | 2000 to 20000
16 | CCOc1cc(NC(=O)[C@H]2CCC=C[C@H]2O)ccc1S(=O)(=O)Nc1cccc(OC(F)(F)F)c1 [Example 1.226] | 200 to 750
17 | CCOc1cc(NC(=O)CC(O)c2ccnn2C)ccc1S(=O)(=O)Nc1cccc(OC(F)(F)F)c1 (centres unmarked) [Example 1.060] | 750 to 2000
18 | Cc1cc(NC(=O)c2ccccc2F)ccc1S(=O)(=O)Nc1cccc(C(F)(F)F)c1 [Example 1.070] | 2000 to 20000
19 | CC(=O)Nc1ccc(S(=O)(=O)Nc2cccc(OC(F)(F)F)c2)c(C(C)C)c1 [Example 1.132] | 2000 to 20000
20 | Cn1nccc1C(=O)Nc1ccc(S(=O)(=O)Nc2cccc(C(F)(F)F)c2)c(Br)c1 [Example 1.351] | 200 to 750
21 | CC(=O)Nc1ccc(S(=O)(=O)Nc2cccc(C(F)(F)F)c2)c(C(C)C)c1 [Example 1.573] | 2000 to 20000
22 | CCc1cc(NC(C)=O)ccc1S(=O)(=O)Nc1cccc(C(F)(F)F)c1 [Example 1.382] | 750 to 2000

Row | SMILES | IC50 [nM]
23 | Cc1cc(NC(=O)c2ccc(F)cc2)ccc1S(=O)(=O)Nc1cccc(C(F)(F)F)c1 [Example 1.002] | 200 to 750
24 | CCOC(=O)[C@H]1CC(C)=C(C)C[C@@H]1C(=O)Nc1ccc(S(=O)(=O)Nc2cccc(OC(F)(F)F)c2)c(OCC)c1 [Example 1.291] | 200 to 750
25 | Cc1cc(NC(=O)C2CCN(C)CC2)ccc1S(=O)(=O)Nc1cccc(C(F)(F)F)c1 [Example 1.522] | 2000 to 20000
26 | CCOc1cc(NC(=O)C(C)O)ccc1S(=O)(=O)Nc1cccc(OC(F)(F)F)c1 (centres unmarked) [Example 1.532] | 200 to 750
27 | CCOc1cc(NC(=O)CC(O)C2CCCOC2)ccc1S(=O)(=O)Nc1cccc(OC(F)(F)F)c1 (centres unmarked) [Example 1.230] | 750 to 2000
28 | O=C(Nc1ccc(S(=O)(=O)Nc2cccc(OC(F)(F)F)c2)c(F)c1)C(CO)c1ccccc1 (centres unmarked) [Example 1.395] | 750 to 2000
29 | CCOc1cc(NC(=O)[C@@H](O)C(C)C)ccc1S(=O)(=O)Nc1cccc(Cl)c1C [Example 1.570] | 750 to 2000
30 | CCOc1cc(NC(=O)c2cccc(=O)n2C)ccc1S(=O)(=O)Nc1cccc(OC(F)(F)F)c1 [Example 1.037] | 200 to 750
31 | COc1cc(NC(=O)[C@@H]2CCC[C@H]2N)ccc1S(=O)(=O)Nc1cccc(C(F)(F)F)c1 [Example 1.392] | 2000 to 20000
32 | CCOc1cc(NS(=O)(=O)c2ccc(NC(=O)[C@@H](O)C(C)C)cc2OCC)ccc1Cl [Example 1.210] | 200 to 750
33 | CCOc1cc(NC(=O)C2COCCO2)ccc1S(=O)(=O)Nc1cccc(OC(F)(F)F)c1 (centres unmarked) [Example 1.282] | 750 to 2000
34 | CCOc1cc(NC(=O)[C@@H]2COC[C@@H]2O)ccc1S(=O)(=O)Nc1cccc(OC(F)(F)F)c1 (racemic) [Example 1.010] | 200 to 750
35 | COc1ccc(C(=O)Nc2ccc(S(=O)(=O)Nc3cccc(C(F)(F)F)c3)c(C)c2)cc1 [Example 1.136] | 750 to 2000
36 | Cc1cc(NC(=O)c2cocn2)ccc1S(=O)(=O)Nc1cccc(C(F)(F)F)c1 [Example 1.301] | 2000 to 20000
37 | CCOc1cc(NC(=O)[C@@H](CO)c2ccccc2)ccc1S(=O)(=O)Nc1ccc2c(c1)OC(F)(F)O2 [Example 1.121] | 2000 to 20000
38 | CCOc1cc(NC(=O)[C@H]2CCOC[C@H]2O)ccc1S(=O)(=O)Nc1cccc(OC(F)(F)F)c1 (racemic) [Example 1.107] | 200 to 750
39 | CCOc1cc(NC(=O)C2CCCNC2)ccc1S(=O)(=O)Nc1cccc(OC(F)(F)F)c1 (centres unmarked) [Example 1.030] | 2000 to 20000
40 | COc1cc(NC(=O)c2ccnn2C)ccc1S(=O)(=O)Nc1ccc(C#N)c(OC(F)(F)F)c1 [Example 1.015] | 750 to 2000
41 | COc1cc(NC(=O)c2ccn[nH]2)ccc1S(=O)(=O)Nc1cccc(C(F)(F)F)c1 [Example 1.055] | 750 to 2000
42 | Cc1cc(NC(=O)c2cccc(Cl)c2)ccc1S(=O)(=O)Nc1cccc(C(F)(F)F)c1 [Example 1.299] | 200 to 750
43 | CC(C)c1cc(NC(=O)c2ccnn2C)ccc1S(=O)(=O)Nc1cccc(C(F)(F)F)c1 [Example 1.384] | 200 to 750

Now from value to molecule:

Row | IC50 [nM] | SMILES
44 | ≤ 200 | CCOc1cc(NC(=O)[C@@H](CO)C(C)C)ccc1S(=O)(=O)Nc1ccc(C)c(C(F)(F)F)c1 [Example 1.102]
45 | ≤ 200 | COc1cc(NC(=O)[C@@H](CO)C(C)C)ccc1S(=O)(=O)Nc1cccc(C(F)(F)F)c1 [Example 1.460]
46 | 200 to 750 | COc1cc(NC(=O)[C@@H](CO)c2ccccc2)ccc1S(=O)(=O)Nc1cccc(OC(F)(F)F)c1 [Example 1.235]
47 | ≤ 200 | CCOc1cc(NC(=O)[C@@H](CO)c2ccccc2)ccc1S(=O)(=O)Nc1cccc(OC(F)(F)F)c1 [Example 1.536]
48 | ≤ 200 | COc1cc(NC(=O)c2ccnn2C)ccc1S(=O)(=O)Nc1ccc(F)c(OC(F)(F)F)c1 [Example 1.409]
49 | ≤ 200 | CCOc1cc(NC(=O)[C@@H](O)C(C)C)ccc1S(=O)(=O)Nc1ccc(OC)c(C(F)(F)F)c1 [Example 1.021]
50 | ≤ 200 | CCOc1cc(NC(=O)[C@@H](CO)C(C)C)ccc1S(=O)(=O)Nc1ccc(C)c(Cl)c1 [Example 1.142]
51 | ≤ 200 | CCOc1cc(NC(=O)[C@@H](CO)C(C)C)ccc1S(=O)(=O)Nc1cccc(C2CC2)c1 [Example 1.082]
52 | 200 to 750 | CCOc1cc(NC(=O)C(O)c2ccc(O)cc2)ccc1S(=O)(=O)Nc1cccc(OC(F)(F)F)c1 (centres unmarked) [Example 1.527]
53 | ≤ 200 | CCOc1cc(NC(=O)[C@@H](NC(C)=O)C(C)C)ccc1S(=O)(=O)Nc1cccc(OC(F)(F)F)c1 [Example 1.415]
54 | 200 to 750 | CCOc1cc(NC(=O)[C@@H]2CCCCC[C@H]2O)ccc1S(=O)(=O)Nc1cccc(OC(F)(F)F)c1 [Example 1.562]
55 | ≤ 200 | CCOc1cc(NC(=O)[C@@H](CO)c2ccccc2)ccc1S(=O)(=O)Nc1ccc(C)c(C(C)C)c1 [Example 1.439]
56 | ≤ 200 | CCOc1cc(NC(=O)[C@H]2CCOC[C@H]2COC)ccc1S(=O)(=O)Nc1cccc(OC(F)(F)F)c1 [Example 1.499]
57 | ≤ 200 | CCOc1cc(NC(=O)[C@@H](N)c2ccccc2)ccc1S(=O)(=O)Nc1cccc(OC(F)(F)F)c1 [Example 1.086]
58 | ≤ 200 | CCOc1cc(NC(=O)c2ccc(C)nc2)ccc1S(=O)(=O)Nc1cccc(OC(F)(F)F)c1 [Example 1.149]
59 | ≤ 200 | CCOc1cc(NC(=O)C(c2ccccc2)C(C)O)ccc1S(=O)(=O)Nc1cccc(OC(F)(F)F)c1 (centres unmarked) [Example 1.446]
60 | ≤ 200 | CCCc1cc(NC(=O)[C@@H](CO)c2ccccc2)ccc1S(=O)(=O)Nc1cccc(OC(F)(F)F)c1 [Example 1.509]
61 | ≤ 200 | O=C(Nc1ccc(S(=O)(=O)Nc2cccc(OC(F)(F)F)c2)c(OC(F)(F)F)c1)[C@@H](CO)c1ccccc1 [Example 1.361]
62 | ≤ 200 | Cc1cc(NC(=O)[C@@H](CO)C2CC2)ccc1S(=O)(=O)Nc1cccc(OC(F)(F)F)c1 [Example 1.079]
63 | ≤ 200 | CCOc1cc(NC(=O)C2CC3C=CC2O3)ccc1S(=O)(=O)Nc1cccc(OC(F)(F)F)c1 (centres unmarked) [Example 1.508]
64 | ≤ 200 | CCOc1cc(NC(=O)c2ccncc2)ccc1S(=O)(=O)Nc1cccc(OC(F)(F)F)c1 [Example 1.366]
65 | ≤ 200 | CCOc1cc(NC(=O)c2ccccc2)ccc1S(=O)(=O)Nc1cccc(OC(F)(F)F)c1 [Example 1.073]
66 | ≤ 200 | CCOc1cc(NC(=O)C(O)c2c(F)cccc2F)ccc1S(=O)(=O)Nc1cccc(OC(F)(F)F)c1 (centres unmarked) [Example 1.511]
67 | ≤ 200 | CCOc1cc(NC(=O)[C@@H](N)c2ccccc2)ccc1S(=O)(=O)Nc1ccc(F)c(OC(F)(F)F)c1 [Example 1.560]
68 | ≤ 200 | CCOc1cc(NC(=O)c2cc[nH]c(=O)c2)ccc1S(=O)(=O)Nc1cccc(OC(F)(F)F)c1 [Example 1.103]
69 | ≤ 200 | CCOc1cc(NC(=O)[C@@H](CO)C(C)C)ccc1S(=O)(=O)Nc1ccc(Cl)c(C(F)(F)F)c1 [Example 1.523]
70 | ≤ 200 | COc1cc(NC(=O)[C@@H](CO)C2CC2)ccc1S(=O)(=O)Nc1cccc(OC(F)(F)F)c1 [Example 1.283]
71 | ≤ 200 | CCOc1cc(NC(=O)[C@@H](CO)C2CC2)ccc1S(=O)(=O)Nc1cccc(C(C)C)c1 [Example 1.025]
